Test results as given in ChEMBL document CHEMBL1201862, “PubChem BioAssay data set” (2004).
Active and inactive are the calls of the source.

Experiments:
[1] = NIH-3T3 fibroblast cytotoxicity, dose response, cytotoxicity control, cell-based, fluorescence, Alamar Blue, secondary assay (AID 2327); type: functional;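 also: NIH-3T3 mouse fibroblasts cultured with fluconazole at 8 µg/mL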
Caspase-3 = molecular target: T1, Caspase-3 (Homo sapiens, UniProt P42574); type: functional;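 also: Dose-response selectivity test against caspase-3 for candidate inhibitors of sentrin-specific proteases (SENPs)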
T1 sequence (P42574 whole entry): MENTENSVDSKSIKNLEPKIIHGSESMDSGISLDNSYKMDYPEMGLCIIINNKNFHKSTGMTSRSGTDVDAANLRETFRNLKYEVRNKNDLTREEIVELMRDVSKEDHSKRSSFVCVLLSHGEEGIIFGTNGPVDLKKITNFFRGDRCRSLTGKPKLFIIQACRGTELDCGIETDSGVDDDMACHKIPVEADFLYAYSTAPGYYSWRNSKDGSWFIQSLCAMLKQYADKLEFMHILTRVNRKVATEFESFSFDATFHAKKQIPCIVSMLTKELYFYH

[2] = molecular target: T2, Sentrin-specific protease 7 (Homo sapiens, UniProt Q9BQF6); type: functional;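 also: Luminescence-based dose-response confirmation of ultra-high-throughput screening hits, measuring inhibition of SENP7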
T2 sequence (Q9BQF6 whole entry): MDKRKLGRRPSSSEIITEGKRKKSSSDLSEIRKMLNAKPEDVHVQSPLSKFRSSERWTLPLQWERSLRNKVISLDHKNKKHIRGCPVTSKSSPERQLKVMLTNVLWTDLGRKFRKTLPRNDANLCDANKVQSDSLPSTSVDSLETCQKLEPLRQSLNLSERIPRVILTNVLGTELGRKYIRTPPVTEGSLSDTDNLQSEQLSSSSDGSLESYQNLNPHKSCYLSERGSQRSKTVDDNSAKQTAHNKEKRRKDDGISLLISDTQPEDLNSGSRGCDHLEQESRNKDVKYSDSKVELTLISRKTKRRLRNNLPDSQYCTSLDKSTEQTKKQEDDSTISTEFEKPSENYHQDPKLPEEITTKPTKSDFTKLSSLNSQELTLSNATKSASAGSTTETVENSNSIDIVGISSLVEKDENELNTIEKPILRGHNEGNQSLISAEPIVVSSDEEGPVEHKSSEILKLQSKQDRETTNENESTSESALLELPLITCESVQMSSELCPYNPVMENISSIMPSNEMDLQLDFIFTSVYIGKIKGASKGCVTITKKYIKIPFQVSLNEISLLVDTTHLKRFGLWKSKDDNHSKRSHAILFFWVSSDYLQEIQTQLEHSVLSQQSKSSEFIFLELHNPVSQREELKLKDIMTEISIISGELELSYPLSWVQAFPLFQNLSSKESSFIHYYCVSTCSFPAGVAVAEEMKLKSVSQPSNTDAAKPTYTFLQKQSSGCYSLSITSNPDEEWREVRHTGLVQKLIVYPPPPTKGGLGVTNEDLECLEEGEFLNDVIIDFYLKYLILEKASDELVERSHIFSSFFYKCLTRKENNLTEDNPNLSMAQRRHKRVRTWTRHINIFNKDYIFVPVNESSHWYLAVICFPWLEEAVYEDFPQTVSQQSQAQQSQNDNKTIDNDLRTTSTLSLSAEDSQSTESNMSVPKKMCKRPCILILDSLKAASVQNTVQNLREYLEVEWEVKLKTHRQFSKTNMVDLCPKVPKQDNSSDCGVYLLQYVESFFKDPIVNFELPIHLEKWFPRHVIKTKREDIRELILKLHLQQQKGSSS

[3] = molecular target: T3, Sentrin-specific protease 6 (Homo sapiens, UniProt Q9GZR1); type: functional;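 also: Luminescence-based dose-response confirmatory assay of SENP6 inhibition, following up an ultra-high-throughput screen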
T3 sequence (Q9GZR1 whole entry): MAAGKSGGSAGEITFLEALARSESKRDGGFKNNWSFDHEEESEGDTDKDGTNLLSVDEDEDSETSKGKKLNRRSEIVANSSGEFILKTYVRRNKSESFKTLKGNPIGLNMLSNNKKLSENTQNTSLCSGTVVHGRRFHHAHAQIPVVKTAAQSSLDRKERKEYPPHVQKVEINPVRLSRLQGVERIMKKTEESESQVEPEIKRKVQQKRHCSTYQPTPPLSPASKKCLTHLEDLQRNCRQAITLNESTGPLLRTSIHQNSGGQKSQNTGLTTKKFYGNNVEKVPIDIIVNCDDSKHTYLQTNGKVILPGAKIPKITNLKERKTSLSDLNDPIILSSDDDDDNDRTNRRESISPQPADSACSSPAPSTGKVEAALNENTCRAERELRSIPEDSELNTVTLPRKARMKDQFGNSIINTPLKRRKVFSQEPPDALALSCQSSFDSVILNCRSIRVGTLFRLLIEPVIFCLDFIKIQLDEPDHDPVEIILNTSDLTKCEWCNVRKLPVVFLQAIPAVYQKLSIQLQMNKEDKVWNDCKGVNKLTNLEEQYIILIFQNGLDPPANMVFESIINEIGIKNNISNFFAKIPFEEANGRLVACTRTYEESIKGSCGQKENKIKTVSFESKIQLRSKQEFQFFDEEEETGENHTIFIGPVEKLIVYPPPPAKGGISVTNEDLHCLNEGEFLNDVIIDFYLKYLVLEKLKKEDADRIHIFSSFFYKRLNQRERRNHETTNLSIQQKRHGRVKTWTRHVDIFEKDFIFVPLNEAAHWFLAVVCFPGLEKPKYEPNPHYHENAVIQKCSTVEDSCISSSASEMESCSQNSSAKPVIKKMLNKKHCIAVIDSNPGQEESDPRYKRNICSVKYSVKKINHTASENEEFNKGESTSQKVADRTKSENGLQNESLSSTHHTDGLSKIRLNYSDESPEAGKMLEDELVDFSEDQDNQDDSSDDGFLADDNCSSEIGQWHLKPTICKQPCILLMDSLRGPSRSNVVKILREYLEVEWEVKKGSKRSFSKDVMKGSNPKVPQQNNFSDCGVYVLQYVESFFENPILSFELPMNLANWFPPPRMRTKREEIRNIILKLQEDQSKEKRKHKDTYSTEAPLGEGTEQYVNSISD

[4] = molecular target: T4, Sentrin-specific protease 8 (Homo sapiens, UniProt Q96LD8); type: functional;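 also: luminescence read-out of SENP8 inhibition, dose-response confirmation following an ultra-high-throughput screen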
T4 sequence (Q96LD8 whole entry): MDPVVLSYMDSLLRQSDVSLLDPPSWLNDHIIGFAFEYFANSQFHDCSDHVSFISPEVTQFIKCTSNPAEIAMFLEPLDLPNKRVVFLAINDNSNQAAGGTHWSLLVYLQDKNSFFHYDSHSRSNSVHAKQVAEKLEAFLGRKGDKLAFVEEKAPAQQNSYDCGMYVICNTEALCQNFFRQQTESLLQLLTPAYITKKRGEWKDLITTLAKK

Protein skinhead-1 = molecular target: T5, Protein skinhead-1 (Caenorhabditis elegans, UniProt P34707); type: functional
T5 sequence (P34707 whole entry): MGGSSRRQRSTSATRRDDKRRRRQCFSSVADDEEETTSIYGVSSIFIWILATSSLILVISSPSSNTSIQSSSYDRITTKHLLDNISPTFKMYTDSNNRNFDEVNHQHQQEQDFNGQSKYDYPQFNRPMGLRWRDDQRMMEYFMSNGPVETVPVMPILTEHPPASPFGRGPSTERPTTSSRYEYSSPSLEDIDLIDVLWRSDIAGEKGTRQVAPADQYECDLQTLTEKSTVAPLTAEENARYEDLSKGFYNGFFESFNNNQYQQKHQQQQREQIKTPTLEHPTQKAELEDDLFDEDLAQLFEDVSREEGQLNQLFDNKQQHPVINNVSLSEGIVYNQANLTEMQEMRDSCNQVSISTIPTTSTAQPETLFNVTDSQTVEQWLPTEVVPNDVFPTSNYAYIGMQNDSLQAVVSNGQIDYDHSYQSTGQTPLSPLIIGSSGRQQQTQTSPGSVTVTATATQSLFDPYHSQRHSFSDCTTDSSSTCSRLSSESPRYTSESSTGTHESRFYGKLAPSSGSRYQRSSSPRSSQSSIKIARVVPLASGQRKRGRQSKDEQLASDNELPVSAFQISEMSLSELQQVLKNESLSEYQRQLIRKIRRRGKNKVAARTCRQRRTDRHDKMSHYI

[5] = molecular target: T6, Polyadenylate-binding protein 1 (Homo sapiens, UniProt P11940); assay: MLLE binding blockers, Cy5 peptide tracer – biochemical, fluorescence polarization, Cy5-PAM2 peptide, secondary, miRNA deadenylation inhibitor project, dose response (AID 602260); type: functional; conditions: read-out: IC50_Mean
T6 sequence (P11940 whole entry, the tested form may be a part): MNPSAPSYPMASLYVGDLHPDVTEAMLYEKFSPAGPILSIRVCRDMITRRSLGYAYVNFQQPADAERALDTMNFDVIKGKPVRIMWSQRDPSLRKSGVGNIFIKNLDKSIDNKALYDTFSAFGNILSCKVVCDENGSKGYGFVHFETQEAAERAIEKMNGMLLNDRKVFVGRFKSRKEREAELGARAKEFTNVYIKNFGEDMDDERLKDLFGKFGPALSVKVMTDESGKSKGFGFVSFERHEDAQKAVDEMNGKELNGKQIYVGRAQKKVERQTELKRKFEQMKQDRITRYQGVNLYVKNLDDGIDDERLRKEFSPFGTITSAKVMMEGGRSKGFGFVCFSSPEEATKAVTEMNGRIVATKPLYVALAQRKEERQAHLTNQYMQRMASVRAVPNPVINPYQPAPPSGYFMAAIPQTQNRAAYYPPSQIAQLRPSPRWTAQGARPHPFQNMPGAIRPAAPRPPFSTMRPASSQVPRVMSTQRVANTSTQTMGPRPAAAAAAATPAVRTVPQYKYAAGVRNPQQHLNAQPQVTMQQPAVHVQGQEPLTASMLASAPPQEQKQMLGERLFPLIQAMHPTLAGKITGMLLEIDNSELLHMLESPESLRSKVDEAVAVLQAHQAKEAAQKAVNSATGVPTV

[6] = molecular target: T6, Polyadenylate-binding protein 1; assay: MLLE domain peptide-binding blockers, IC50 – biochemical, fluorescence polarization, FITC-PAM2 peptide, dose response (AID 602259); type: functional; conditions: read-out: IC50_Mean
[7] = Luminescence Cell-Based Dose Confirmation HTS to Identify Activators of 5'UTR Stem-Loop Driven Alpha-Synuclein mRNA Translation in H4 Neuroglioblastoma Cells. [Related pubchem assays: 1829 (Project Summary), 1814 (Primary HTS)]; type: functional
[8] = Luminescence Cell-Based Dose Response HTS to Identify Activators of Luciferase Translation or Activity in H4 […] Cells. [Related pubchem assays: 1829 (Project Summary), 1814 (Primary HTS)]; type: functional
H4 = assay: Luminescence Cell-Based Dose Response HTS to Identify Activators of 5'UTR Stem-Loop Driven Prion Protein mRNA Translation in H4 Neuroglioblastoma Cells. [Related pubchem assays: 1829 (Project Summary), 1814 (Primary HTS)]; type: functional; conditions: Homo sapiens
[9] = tested on: Streptococcus sp. 'group A'; assay: Streptococcus pyogenes SK(-)GAS viability under kanamycin – luminescence, BacTiterGlo, confirmation, counter-screen for streptokinase expression inhibitor project, dose response (AID 1900); type: functional, organism-based
Streptokinase A = molecular target: T7, Streptokinase A (Streptococcus pyogenes serotype M1, UniProt P10520); assay: viability-normalized secreted streptokinase activity reduction – plasminogen activation absorbance, OD405, dose response (AID 1914); type: functional, Streptococcus pyogenes M1 GAS;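 also: secreted streptokinase activity via plasminogen activation per viability signal from cell pellet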
T7 sequence (P10520 whole entry): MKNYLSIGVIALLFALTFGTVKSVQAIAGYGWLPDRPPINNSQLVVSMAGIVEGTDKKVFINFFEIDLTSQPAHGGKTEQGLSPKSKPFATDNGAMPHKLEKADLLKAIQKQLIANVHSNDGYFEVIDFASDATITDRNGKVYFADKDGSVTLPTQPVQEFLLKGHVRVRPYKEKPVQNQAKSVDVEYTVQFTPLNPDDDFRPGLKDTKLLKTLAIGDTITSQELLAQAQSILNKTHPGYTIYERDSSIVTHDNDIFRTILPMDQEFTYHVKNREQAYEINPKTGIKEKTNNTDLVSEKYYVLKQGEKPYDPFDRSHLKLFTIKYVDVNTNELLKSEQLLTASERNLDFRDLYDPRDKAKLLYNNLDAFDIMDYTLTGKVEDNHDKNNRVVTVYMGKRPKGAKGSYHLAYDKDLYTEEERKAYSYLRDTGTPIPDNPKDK

Streptococcus = assay: GAS UMAA2166 growth inhibition – luminescence, BacTiterGlo, counter-screen for streptokinase expression inhibitor project, dose response (AID 1915); type: functional, organism-based;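 also: potency for reduction of bacterial viability or growth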
Cytochrome P450 2D6 = Cytochrome P450 2D6 (Homo sapiens, UniProt P10635);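 also: CYP2D6 member of a cytochrome P450 panel assay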
Chain of Cytochrome P450 2D6 (P10635 whole entry): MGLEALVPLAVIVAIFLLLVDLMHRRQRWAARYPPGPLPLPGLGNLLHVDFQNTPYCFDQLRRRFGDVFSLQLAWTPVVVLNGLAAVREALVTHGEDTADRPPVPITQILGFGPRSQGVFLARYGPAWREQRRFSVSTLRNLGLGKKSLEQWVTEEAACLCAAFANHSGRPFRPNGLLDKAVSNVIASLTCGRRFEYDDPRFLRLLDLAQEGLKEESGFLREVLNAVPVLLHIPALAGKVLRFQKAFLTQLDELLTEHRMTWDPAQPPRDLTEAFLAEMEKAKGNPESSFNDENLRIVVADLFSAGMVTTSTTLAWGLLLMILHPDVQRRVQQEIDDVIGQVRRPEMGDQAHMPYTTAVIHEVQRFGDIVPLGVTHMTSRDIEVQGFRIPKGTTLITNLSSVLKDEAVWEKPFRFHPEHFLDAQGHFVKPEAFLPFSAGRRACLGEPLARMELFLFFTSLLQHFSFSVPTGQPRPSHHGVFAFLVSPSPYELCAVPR

Cytochrome P450 3A4 = Cytochrome P450 3A4 (Homo sapiens, UniProt P08684);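 also: CYP3A4 tested as one member of a cytochrome P450 panel screen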
Chain of Cytochrome P450 3A4 (P08684 whole entry): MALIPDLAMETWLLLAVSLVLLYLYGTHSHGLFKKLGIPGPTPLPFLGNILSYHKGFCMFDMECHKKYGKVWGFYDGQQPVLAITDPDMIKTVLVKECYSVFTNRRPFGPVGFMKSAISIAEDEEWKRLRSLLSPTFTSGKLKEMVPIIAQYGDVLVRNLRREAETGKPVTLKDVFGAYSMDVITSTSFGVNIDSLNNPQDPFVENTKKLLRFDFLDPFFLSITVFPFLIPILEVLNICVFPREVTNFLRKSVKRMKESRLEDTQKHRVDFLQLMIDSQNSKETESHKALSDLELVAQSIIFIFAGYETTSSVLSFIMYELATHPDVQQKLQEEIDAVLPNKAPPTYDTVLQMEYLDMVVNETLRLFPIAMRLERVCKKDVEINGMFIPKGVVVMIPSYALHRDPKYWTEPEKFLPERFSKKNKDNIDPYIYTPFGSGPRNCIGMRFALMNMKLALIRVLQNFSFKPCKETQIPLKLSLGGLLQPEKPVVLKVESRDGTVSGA

BJ [10] = assay: BJ-TERT fibroblast viability loss – cell-based, RAS-independent, luminescence, dose response (AID 1933); type: functional; conditions: Homo sapiens
BJ [11] = assay: cells; type: functional, cell-based, Homo sapiens; conditions: Homo sapiens, BJ
BJ [12] = assay: BJ-TERT-LT-ST fibroblast viability loss – cell-based, RAS-independent, luminescence, dose response (AID 1935); type: functional; conditions: Homo sapiens;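 also: BJ fibroblasts immortalized with TERT plus LT and ST oncogenes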
[13] = DRD fibroblast viability loss – cell-based, non-viral oncogenic, luminescence, dose response (AID 1934); type: functional; conditions: Homo sapiens

Row | Compound | IC50 (Caspase-3) | IC50 [2] | IC50 [3] | IC50 [4] | IC50 [5] | IC50 [6] | other results
1 | O=C(Nc1nc(=O)c2ccccc2s1)c1ccccc1 | 4.38 µM (active) | 6.3 µM (active) | 60.6 µM (active) | > 100 µM (inactive) | – | – | EC50 [1]: 63.1 µM (active)
2 | c1ccc2nc(-c3ccc(-n4ccnc4)cc3)ccc2c1 | 8.83 µM (active) | 5.47 µM (active) | 10.8 µM (active) | 13.1 µM (active) | – | – | IC50 (Protein skinhead-1): 7.87 µM (active)
3 | CCN(CC)S(=O)(=O)c1ccc2c(c1)nc(SCn1nnc3ccccc3c1=O)n2CC | – | – | – | – | > 66 µM (inactive) | > 66 µM (inactive) | –
4 | Cc1nc(NC(=S)NC(=O)c2ccccc2)sc1C(=O)N(C)C | – | – | – | – | > 66 µM (inactive) | > 66 µM (inactive) | –
5 | O=C(NN=Cc1sc(=O)[n-]c1-[n+]1ccccc1)c1ccccc1O | – | – | – | – | > 66 µM (inactive) | 35.2 µM (inactive) | –
6 | COc1cccc(C(=O)OCC(=O)c2ccc(Br)s2)c1 | 26.8 µM (active) | 10.3 µM (active) | 14.6 µM (active) | 21.6 µM (active) | – | – | –
7 | CCSc1nsc(NC(=O)Nc2ccccc2F)n1 | 29 µM (active) | 5.95 µM (active) | > 100 µM (inactive) | 6.84 µM (active) | – | – | EC50 [7]: 0.283 µM (active); EC50 [8]: 20.4 µM (active); EC50 (H4): 16.1 µM (inconclusive)
8 | N=C1/C(=C/c2cccs2)C(=O)N=C2SN=C(SCc3ccccc3)N12 | 50.3 µM (active) | 27.7 µM (active) | 11.1 µM (active) | 32.6 µM (active) | – | – | EC50 [9]: 3.65 µM (active); EC50 (Streptokinase A): 5.78 µM (active); EC50 (Streptococcus): 30 µM (active); AC50 (Cytochrome P450 2D6): 25.1 µM (inconclusive); AC50 (Cytochrome P450 3A4): 14.1 µM (inconclusive)
9 | O=C(Nc1ccc(Cl)cc1)Nc1nccs1 | 21.7 µM (active) | 7.33 µM (active) | 14.6 µM (active) | 15.5 µM (active) | – | – | AC50 (Cytochrome P450 2D6): 31.6 µM (inconclusive)
10 | CCOC(=O)c1ccc(Nc2sc(C(=O)c3cccc([N+](=O)[O-])c3)c(N)c2C#N)cc1 | – | – | – | – | – | – | EC50 (BJ [10]): > 150 µM (not active); EC50 (BJ [11]): 92.4 µM (inconclusive); EC50 (BJ [12]): 97.4 µM (active); EC50 [13]: 136 µM (inconclusive)
11 | O=CNc1ccc2c3c(cccc13)-c1ccccc1-2 | – | – | – | – | 33.1 µM (inactive) | 37.1 µM (inactive) | –
12 | CCCc1nc2ccc(Cl)cn2c1Cc1ccsc1 | – | – | – | – | 51.2 µM (inactive) | 59.3 µM (inactive) | –
13 | Nc1[nH]n(-c2ccccc2)c(=O)c1N=Nc1ccccc1 | 20.2 µM (active) | 4.47 µM (active) | > 100 µM (inactive) | > 100 µM (inactive) | – | – | –
